Like-named read-outs stand apart in the source and are kept apart here.
Key:
PGK1 = experiment: Kinobeads competition binding: PGK1; parameters: species or system human; details: target PGK1
NEK3 = experiment: Kinobeads competition binding: NEK3; parameters: species or system human; details: target NEK3
LIMK2 = experiment: Kinobeads competition binding: LIMK2; parameters: species or system human; details: target LIMK2
CSNK1D = molecular target: T1, CSNK1D (Homo sapiens, UniProt P48730); experiment: Kinobeads competition binding: CSNK1D; details: target CSNK1D
T1 construct: endogenous in cells

ERBB3 = experiment: Kinobeads competition binding: ERBB3; parameters: species or system human; details: target ERBB3;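 note: selectivity score: engagement of this protein divided by summed engagement of all targets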
AURKB = molecular target: T2, AURKB (Homo sapiens, UniProt Q96GD4); experiment: Kinobeads competition binding: AURKB; details: target AURKB
T2 construct: endogenous in cells

DDR1 = experiment: Kinobeads competition binding: DDR1; parameters: species or system human; details: target DDR1
CDK2 = molecular target: T3, CDK2 (Homo sapiens, UniProt P24941); experiment: Kinobeads competition binding: CDK2; details: target CDK2
T3 construct: endogenous in cells

CLK1 = molecular target: T4, CLK1 (Homo sapiens, UniProt P49759); experiment: Kinobeads competition binding: CLK1; details: target CLK1
T4 construct: endogenous in cells

EPHA1 = molecular target: T5, EPHA1 (Homo sapiens, UniProt P21709); experiment: Kinobeads competition binding: EPHA1; details: target EPHA1
T5 construct: endogenous in cells
T5 sequence (P21709 26-976): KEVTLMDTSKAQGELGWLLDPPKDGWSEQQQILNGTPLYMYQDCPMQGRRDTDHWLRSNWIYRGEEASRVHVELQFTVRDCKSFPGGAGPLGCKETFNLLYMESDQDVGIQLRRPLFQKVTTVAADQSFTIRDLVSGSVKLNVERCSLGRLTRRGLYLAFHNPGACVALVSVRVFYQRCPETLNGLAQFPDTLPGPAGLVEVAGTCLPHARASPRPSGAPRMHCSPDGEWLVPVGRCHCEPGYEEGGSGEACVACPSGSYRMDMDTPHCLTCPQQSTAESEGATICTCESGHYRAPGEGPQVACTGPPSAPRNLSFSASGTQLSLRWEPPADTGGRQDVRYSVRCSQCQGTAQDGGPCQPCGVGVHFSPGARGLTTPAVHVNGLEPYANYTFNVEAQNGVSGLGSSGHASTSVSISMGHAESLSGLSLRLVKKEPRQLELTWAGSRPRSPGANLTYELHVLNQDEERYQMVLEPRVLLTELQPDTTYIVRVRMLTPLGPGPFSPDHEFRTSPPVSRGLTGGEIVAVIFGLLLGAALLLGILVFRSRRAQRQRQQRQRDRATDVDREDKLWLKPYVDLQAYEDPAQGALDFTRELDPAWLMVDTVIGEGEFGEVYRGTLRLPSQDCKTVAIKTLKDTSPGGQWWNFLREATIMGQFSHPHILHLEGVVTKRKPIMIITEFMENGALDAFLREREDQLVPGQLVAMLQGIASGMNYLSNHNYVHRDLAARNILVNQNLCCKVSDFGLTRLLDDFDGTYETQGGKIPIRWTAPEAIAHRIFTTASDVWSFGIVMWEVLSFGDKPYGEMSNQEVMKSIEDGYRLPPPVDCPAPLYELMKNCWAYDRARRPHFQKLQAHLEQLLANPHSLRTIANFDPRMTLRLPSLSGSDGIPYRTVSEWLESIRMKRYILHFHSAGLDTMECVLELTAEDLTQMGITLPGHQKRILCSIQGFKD
Source text: Supplement 41589_2023_1459_MOESM4_ESM.xlsx, sheet "CATDS matrix" | column: EPHA1

MAP4K1 = experiment: Kinobeads competition binding: MAP4K1; parameters: species or system human; details: target MAP4K1
BMPR1A = experiment: Kinobeads competition binding: BMPR1A; parameters: species or system human; details: target BMPR1A
CDK12 = experiment: Kinobeads competition binding: CDK12; parameters: species or system human; details: target CDK12
ACAD11 = molecular target: T6, ACAD11 (Homo sapiens, UniProt Q709F0); experiment: Kinobeads competition binding: ACAD11; details: target ACAD11
T6 construct: endogenous in cells
T6 sequence (Q709F0 1-780): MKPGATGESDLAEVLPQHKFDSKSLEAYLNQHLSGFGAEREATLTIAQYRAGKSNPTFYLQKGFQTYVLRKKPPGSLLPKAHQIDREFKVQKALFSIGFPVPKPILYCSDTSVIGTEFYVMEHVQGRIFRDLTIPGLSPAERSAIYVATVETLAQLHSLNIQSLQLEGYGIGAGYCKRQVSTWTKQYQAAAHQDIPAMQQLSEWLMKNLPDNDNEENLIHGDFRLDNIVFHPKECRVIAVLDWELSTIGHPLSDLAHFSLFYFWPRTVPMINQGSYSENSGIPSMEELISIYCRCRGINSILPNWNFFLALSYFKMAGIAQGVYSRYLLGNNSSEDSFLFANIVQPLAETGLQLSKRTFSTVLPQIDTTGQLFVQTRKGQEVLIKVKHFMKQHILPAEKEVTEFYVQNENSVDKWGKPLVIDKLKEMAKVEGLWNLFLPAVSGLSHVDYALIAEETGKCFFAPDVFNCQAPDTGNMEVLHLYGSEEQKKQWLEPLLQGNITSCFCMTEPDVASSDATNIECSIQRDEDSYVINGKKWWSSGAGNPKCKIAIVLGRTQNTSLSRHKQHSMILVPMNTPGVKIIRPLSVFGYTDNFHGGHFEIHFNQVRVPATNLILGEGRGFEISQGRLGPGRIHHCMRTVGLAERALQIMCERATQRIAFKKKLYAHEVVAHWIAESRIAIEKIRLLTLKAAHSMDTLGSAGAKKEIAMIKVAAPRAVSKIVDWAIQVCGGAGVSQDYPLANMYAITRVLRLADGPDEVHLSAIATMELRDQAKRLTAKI
Source text: Supplement 41589_2023_1459_MOESM4_ESM.xlsx, sheet "CATDS matrix" | column: ACAD11

CDK9 = experiment: Kinobeads competition binding: CDK9; parameters: species or system human; details: target CDK9
GALK1 = experiment: Kinobeads competition binding: GALK1; parameters: species or system human; details: target GALK1
PKN3 = PKN3 (Homo sapiens, UniProt Q6P5Z2); experiment: NanoBRET in-cell target engagement in HEK293T cells: PKN3; type: cell-based; parameters: full-length PKN3, CSNK2A1 or CSNK2A2 ORF; host or cells: HEK293T;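 note: Full-length PKN3 with C-terminal NanoLuc expressed in HEK293T cells, serial inhibitor dilutions competing against Kinase Tracer K5 at 500 nM, BRET read after 2 h at 37 °C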
[1] = HEK293T cells, in-cell target engagement, read-out: IC50 PKN3 NanoBRET
[2] = average of replicates, read-out: Average of IC50 values NanoBRET PKN3
[3] = biological replicate number 1, read-out: Rep 1 IC50 NanoBRET PKN3
[4] = biological replicate number 2, read-out: Rep 2 IC50 NanoBRET PKN3
[5] = biological replicate number 3, read-out: Rep 3 IC50 NanoBRET PKN3
[6] = biological replicate number 4, read-out: Rep 4 IC50 NanoBRET PKN3

T2 sequence (Q96GD4 whole entry): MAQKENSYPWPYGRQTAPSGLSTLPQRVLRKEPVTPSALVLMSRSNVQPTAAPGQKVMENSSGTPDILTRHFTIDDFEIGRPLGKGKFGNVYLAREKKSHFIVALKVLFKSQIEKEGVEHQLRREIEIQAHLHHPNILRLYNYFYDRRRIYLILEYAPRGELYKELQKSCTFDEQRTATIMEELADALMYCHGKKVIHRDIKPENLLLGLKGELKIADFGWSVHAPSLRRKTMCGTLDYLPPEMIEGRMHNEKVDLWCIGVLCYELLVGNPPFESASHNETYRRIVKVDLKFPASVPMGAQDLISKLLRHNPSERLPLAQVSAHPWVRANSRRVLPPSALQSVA
Chain of PKN3 (Q6P5Z2 whole entry): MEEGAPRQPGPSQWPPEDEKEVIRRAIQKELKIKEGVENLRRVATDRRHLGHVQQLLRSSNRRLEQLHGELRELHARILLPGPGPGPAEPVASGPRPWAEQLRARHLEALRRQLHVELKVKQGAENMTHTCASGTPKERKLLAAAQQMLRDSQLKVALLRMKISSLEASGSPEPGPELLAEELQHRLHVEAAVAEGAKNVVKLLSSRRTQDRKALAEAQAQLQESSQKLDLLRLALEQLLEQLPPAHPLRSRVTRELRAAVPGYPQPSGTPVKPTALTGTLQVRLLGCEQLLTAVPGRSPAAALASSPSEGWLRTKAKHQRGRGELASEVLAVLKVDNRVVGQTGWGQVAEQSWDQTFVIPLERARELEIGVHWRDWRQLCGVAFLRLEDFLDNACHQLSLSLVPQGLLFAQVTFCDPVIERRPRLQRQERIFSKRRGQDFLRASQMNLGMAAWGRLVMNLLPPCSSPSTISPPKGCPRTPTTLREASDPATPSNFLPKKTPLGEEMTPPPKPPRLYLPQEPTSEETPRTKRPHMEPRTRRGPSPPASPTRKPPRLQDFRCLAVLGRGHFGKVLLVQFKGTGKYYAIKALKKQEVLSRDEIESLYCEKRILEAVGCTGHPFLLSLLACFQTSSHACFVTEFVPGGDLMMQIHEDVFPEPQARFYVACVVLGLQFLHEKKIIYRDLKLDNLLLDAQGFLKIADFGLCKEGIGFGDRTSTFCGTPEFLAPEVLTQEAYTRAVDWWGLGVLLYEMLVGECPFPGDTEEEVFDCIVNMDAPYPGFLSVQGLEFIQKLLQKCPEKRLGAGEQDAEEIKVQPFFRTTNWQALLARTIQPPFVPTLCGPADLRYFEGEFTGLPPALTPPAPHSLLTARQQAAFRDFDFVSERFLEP
T1 sequence (P48730 whole entry): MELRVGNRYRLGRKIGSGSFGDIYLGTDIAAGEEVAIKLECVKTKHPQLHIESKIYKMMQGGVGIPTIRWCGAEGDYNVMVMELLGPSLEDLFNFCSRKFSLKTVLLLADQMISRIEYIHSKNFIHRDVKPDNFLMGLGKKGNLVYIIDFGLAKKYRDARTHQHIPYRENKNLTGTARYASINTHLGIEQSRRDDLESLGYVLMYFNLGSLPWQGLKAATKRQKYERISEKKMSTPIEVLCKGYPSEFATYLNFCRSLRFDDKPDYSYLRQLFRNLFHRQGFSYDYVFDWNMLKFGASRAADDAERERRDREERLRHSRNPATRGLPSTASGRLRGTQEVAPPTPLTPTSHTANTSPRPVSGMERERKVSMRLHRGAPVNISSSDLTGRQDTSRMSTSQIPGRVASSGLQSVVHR
T4 sequence (P49759 whole entry): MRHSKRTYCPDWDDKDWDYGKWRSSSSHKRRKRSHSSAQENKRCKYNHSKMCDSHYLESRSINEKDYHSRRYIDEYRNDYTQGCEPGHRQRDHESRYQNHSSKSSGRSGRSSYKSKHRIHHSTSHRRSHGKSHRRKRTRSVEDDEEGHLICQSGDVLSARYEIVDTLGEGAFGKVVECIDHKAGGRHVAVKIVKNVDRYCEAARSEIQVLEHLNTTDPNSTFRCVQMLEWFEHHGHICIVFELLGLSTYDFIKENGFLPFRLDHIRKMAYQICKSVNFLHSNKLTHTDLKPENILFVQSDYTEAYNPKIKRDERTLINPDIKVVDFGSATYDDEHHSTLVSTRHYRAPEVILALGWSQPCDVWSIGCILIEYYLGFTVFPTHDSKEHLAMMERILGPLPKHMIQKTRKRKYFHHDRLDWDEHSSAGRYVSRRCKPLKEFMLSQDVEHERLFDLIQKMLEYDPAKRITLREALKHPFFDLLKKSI

## Nc1ncnc2[nH]c(-c3ccccc3)nc12 [AH5015_KCGS]
PGK1
  CATDS: 0
NEK3
  CATDS: 0
LIMK2
  CATDS: 0
CSNK1D
  CATDS: 0
ERBB3
  CATDS: 0
AURKB
  CATDS: 0
DDR1
  CATDS: 0
CDK2
  CATDS: 0
CLK1
  CATDS: 0
EPHA1
  CATDS: 0
MAP4K1
  CATDS: 0
BMPR1A
  CATDS: 0
CDK12
  CATDS: 0
ACAD11
  CATDS: 0
CDK9
  CATDS: 0
GALK1
  CATDS: 0

## CCN1CCN(Cc2ccc(Nc3ncc(F)c(-c4cc(F)c5nc(C)n(C(C)C)c5c4)n3)nc2)CC1 [Abemaciclib]
PGK1
  CATDS: 0
NEK3
  CATDS: 0
LIMK2
  CATDS: 0
CSNK1D
  CATDS: 0
ERBB3
  CATDS: 0
AURKB
  CATDS: 0
DDR1
  CATDS: 0
EPHA1
  CATDS: 0
MAP4K1
  CATDS: 0
BMPR1A
  CATDS: 0
CDK12
  CATDS: 0
ACAD11
  CATDS: 0
CDK9
  CATDS: 0.02947
GALK1
  CATDS: 0

## CN(C)C/C=C/C(=O)Nc1cc2c(Nc3ccc(F)c(Cl)c3)ncnc2cc1O[C@H]1CCOC1 [Afatinib]
PGK1
  CATDS: 0
CSNK1D
  CATDS: 0
CDK2
  CATDS: 0
EPHA1
  CATDS: 0
CDK12
  CATDS: 0
ACAD11
  CATDS: 0
GALK1
  CATDS: 0

## CCc1cc2c(cc1N1CCC(N3CCOCC3)CC1)C(C)(C)c1[nH]c3cc(C#N)ccc3c1C2=O [Alectinib]
PGK1
  CATDS: 0
NEK3
  CATDS: 0
LIMK2
  CATDS: 0
CSNK1D
  CATDS: 0
ERBB3
  CATDS: 0
AURKB
  CATDS: 0
DDR1
  CATDS: 0
CDK2
  CATDS: 0
CLK1
  CATDS: 0
EPHA1
  CATDS: 0
MAP4K1
  CATDS: 0
BMPR1A
  CATDS: 0
CDK12
  CATDS: 0
ACAD11
  CATDS: 0
CDK9
  CATDS: 0
GALK1
  CATDS: 0

## N#CC1(c2ccc(NC(=O)c3cccnc3NCc3ccncc3)cc2)CCCC1 [Apatinib]
PGK1
  CATDS: 0
NEK3
  CATDS: 0
LIMK2
  CATDS: 0
CSNK1D
  CATDS: 0
ERBB3
  CATDS: 0
AURKB
  CATDS: 0
DDR1
  CATDS: 0
CDK2
  CATDS: 0
CLK1
  CATDS: 0
EPHA1
  CATDS: 0
MAP4K1
  CATDS: 0
BMPR1A
  CATDS: 0
CDK12
  CATDS: 0
ACAD11
  CATDS: 0
CDK9
  CATDS: 0
GALK1
  CATDS: 0

## CCn1c(-c2nonc2N)nc2c(C#CC(C)(C)O)nc(OCCN)cc21 [GSK902056A]
PKN3; [1]
  IC50: 79 nM
PKN3; [2]
  IC50: 99.2 nM
PKN3; [3]
  IC50: 234 nM
PKN3; [4]
  IC50: 56.5 nM
PKN3; [5]
  IC50: 27 nM
PKN3; [6]
  IC50: 79.2 nM

## CCn1c(-c2nonc2N)nc2c(C#CC(C)(C)O)nc(OCCNC)cc21 [GSK949675A]
PKN3; [1]
  IC50: 136 nM
PKN3; [2]
  IC50: 669 nM
PKN3; [3]
  IC50: 1950 nM
PKN3; [4]
  IC50: 441 nM
PKN3; [5]
  IC50: 149 nM

## NCc1ccc(-c2nc(-c3ccncc3)c(-c3ccc(Cl)c(O)c3)[nH]2)cc1 [SB-476429-A]
PKN3; [1]
  IC50: 85 nM
PKN3; [2]
  IC50: 243 nM
PKN3; [3]
  IC50: 589 nM
PKN3; [4]
  IC50: 211 nM
PKN3; [5]
  IC50: 86.7 nM
PKN3; [6]
  IC50: 85.4 nM

— publication PMC11062922 (Nature Chemical Biology, 2023)
